Measurements as given in patent US6630499B1, “Control of arthropods in animals” (Aventis CropScience, S.A., priority 1998, dated 2003).

What was measured:
Assay type in all cases: in vivo
[1] = tested on: cat fleas (Ctenocephalides felis); experiment: Control of cat fleas on treated dogs (Biological Examples 1-3); settings: 10 mg/kg; for % Control 1 DPT (Fleas/Ticks): Fleas: dogs, 30 mg/mL in 1:1 dimethyl sulfoxide/corn oil, 1 day post-treatment, versus placebo group
Description: (§1) All dogs were infested with cat fleas (Ctenocephalides felis) and with ticks (Rhipicephalus sanguineus) 1 day prior to administration of the compound. Cats were only infested with fleas. The initial flea and tick counts were performed 1 day after the administration of the compounds. At 7, 14, 21 and 28 days after treatment the dogs were re-infested with ticks and 8, 15, 22 and 29 days after treatment the dogs and cats were re-infested with fleas. At 1, 9, 16, 23 and 30 days after treatment the control of fleas and ticks in treated dogs and cats was determined versus a group of infested dogs and cats which received a placebo consisting of a 1:1 volume/volume solution of dimethyl sulfoxide and corn oil. To determine the efficacies of the compounds, the arthropods were combed from the animals and counted.
(§2) The compounds listed below were formulated and tested as described in Biological Example 1, again at the dosage level of active ingredient of 10 mg/kg in dogs and 20 mg/kg in cats. Results at 1 DPT (day post-treatment) are tabulated below, where the compound numbers are the same as those listed in Tables 1, 2, 4, 5, 6, 7, 8, 9, 10, 11, 12 and 13 hereinabove.
(§3) Testing was carried out as described in Biological Example 1. […] The Huang et al compound was deemed to have insufficient activity to be tested in cats.

Emesis in treated dogs = settings: 10 mg/kg; for % Emesis: dogs
Description: (§4) By the term “emesis” is meant vomiting. Generally an emetic substance elicits emesis in less than 24 hours after administration, usually less than 8 hours, more usually less than 2 hours. By the term “substantially non-emetic” is meant that, generally, when a compound or composition of the invention is administered to a population of animals, more than 70% (or at least ⅔) of the animals are free of emesis. Preferably, more than 80%, most preferably more than 90%, of said population is free of emesis.
(§5) In the animals treated with the compounds above, there was substantially no emesis after 2, 8 and 24 hours. Generally long-term control of fleas and ticks was provided in dogs. In the cats treated, there was commercially acceptable control of fleas for at least one day post treatment.
as §2

[2] = tested on: ticks (Rhipicephalus sanguineus); experiment: Control of ticks on treated dogs (Biological Examples 1-3); settings: 10 mg/kg; for % Control 1 DPT (Fleas/Ticks): Ticks: dogs, 30 mg/mL in 1:1 dimethyl sulfoxide/corn oil, 1 day post-treatment, versus placebo group
Description: as §1, §2, §3

Emesis in treated cats = settings: cats, 20 mg/kg
Description: as §4, §5, §2

[3] = tested on: cat fleas (Ctenocephalides felis); experiment: Control of cat fleas on treated cats (Biological Examples 1-3); settings: cats, 20 mg/kg, 30 mg/mL in 1:1 dimethyl sulfoxide/corn oil, 1 day post-treatment, versus placebo group
Description: as §1, §2, §3

Compound	% Control 1 DPT (Fleas/Ticks): Fleas [1]	% Emesis (Emesis in treated dogs) [%]	% Control 1 DPT (Fleas/Ticks): Ticks [2]	% Emesis (Emesis in treated cats) [%]	% Control 1 DPT (Fleas) [3] [%]	control of fleas after 9 DPT ([1]; group of 3 dogs, 9 DPT) [%]	emesis (Emesis in treated dogs; group of 3 dogs)	control of ticks after 9 DPT ([2]; group of 3 dogs, 9 DPT) [%]
CCOCC(=O)N(CC1CC1)c1c(S(=O)(=O)C(F)(F)F)c(C#N)nn1-c1c(Cl)cc(C(F)(F)F)cc1Cl [Compound 28-5]	100%	0	74%	–	–	–	–	–
N#Cc1nn(-c2c(Cl)cc(C(F)(F)F)cc2Cl)c(N(CC2CC2)C(=O)C2CCCO2)c1SC(F)(F)F (stereo not shown) [Compound 7-7]	29%	0	66%	–	–	–	–	–
CCC(=O)N(C)c1c(SC(F)(F)F)c(C#N)nn1-c1c(Cl)cc(C(F)(F)F)cc1Cl [Compound 123-1]	74%	0	0%	25	100	–	–	–
CN(C(=O)C1CCCO1)c1c([S+]([O-])C(F)(F)F)c(C#N)nn1-c1c(Cl)cc(C(F)(F)F)cc1Cl (mixture of isomers) [Compound 1-9]	100/100%	0	100/100%	0	100	–	–	–
N#Cc1nn(-c2c(Cl)cc(C(F)(F)F)cc2Cl)c(N(C(=O)C2CCCO2)C2CC2)c1S(=O)(=O)C(F)(F)F (racemic) [Compound 6-11]	100%	0	98%	0	98	–	–	–
N#Cc1nn(-c2c(Cl)cc(C(F)(F)F)cc2Cl)c(N=CNCC(F)(F)F)c1SC(F)(F)F.O=C(O)CC(O)(CC(=O)O)C(=O)O [Compound 233]	100%	0	77%	0	95	–	–	–
COCC(=O)N(CC1CC1)c1c(S(=O)(=O)C(F)(F)F)c(C#N)nn1-c1c(Cl)cc(C(F)(F)F)cc1Cl [Compound 27-5]	100/100%	0	100/100%	0	100	–	–	–
N#Cc1nn(-c2c(Cl)cc(C(F)(F)F)cc2Cl)c(N=CNCc2ccccc2)c1SC(F)(F)F [Compound 224]	38%	0	6%	–	–	–	–	–
CCCOC(=O)N(CC)c1c(SC(F)(F)F)c(C#N)nn1-c1c(Cl)cc(C(F)(F)F)cc1Cl [Compound 74-1]	99%	0	87%	0	100	–	–	–
CC(C)OCC(=O)N(C)c1c([S+]([O-])C(F)(F)F)c(C#N)nn1-c1c(Cl)cc(C(F)(F)F)cc1Cl (stereo not shown) [Compound 4-3]	100/100%	33	100/100%	25	100	–	–	–
CCOCC(=O)N(c1c(SC(F)(F)F)c(C#N)nn1-c1c(Cl)cc(C(F)(F)F)cc1Cl)C1CC1 [Compound 3-12]	99%	0	97%	25	97	–	–	–
CCOC(C)(C)C(=O)N(C)c1c(SC(F)(F)F)c(C#N)nn1-c1c(Cl)cc(C(F)(F)F)cc1Cl [Compound 119-1]	–	–	–	0	99	–	–	–
CCCC(=O)N(C)c1c(SC(F)(F)F)c(C#N)nn1-c1c(Cl)cc(C(F)(F)F)cc1Cl [Compound 124-1]	–	–	–	0	92	–	–	–
CCOC(=O)N(c1c(SC(F)(F)F)c(C#N)nn1-c1c(Cl)cc(C(F)(F)F)cc1Cl)C(C)C [Compound 80-1]	100%	0	94%	0	99	–	–	–
CCN(C(=O)OC(C)C)c1c(SC(F)(F)F)c(C#N)nn1-c1c(Cl)cc(C(F)(F)F)cc1Cl [Compound 73-1]	100/100%	0	100/100%	0	93	–	–	–
CCOCC(=O)N(C)c1c([S+]([O-])C(F)(F)F)c(C#N)nn1-c1c(Cl)cc(C(F)(F)F)cc1Cl (racemic) [Compound 3-3]	100%	0	98%	0	100	–	–	–
CN(C(=O)C1CCCCO1)c1c(SC(F)(F)F)c(C#N)nn1-c1c(Cl)cc(C(F)(F)F)cc1Cl (racemic) [Compound 121-1]	–	–	–	0	100	–	–	–
CCCN(C(=O)COCC)c1c(SC(F)(F)F)c(C#N)nn1-c1c(Cl)cc(C(F)(F)F)cc1Cl [Compound 13-1]	99%	0	97%	0	61	–	–	–
CCOC(C)C(=O)N(C)c1c([S+]([O-])C(F)(F)F)c(C#N)nn1-c1c(Cl)cc(C(F)(F)F)cc1Cl (mixture of isomers) [Compound 122-1]	100%	0	95%	–	–	–	–	–
COCC(=O)Nc1c(SC(F)(F)F)c(C#N)nn1-c1c(Cl)cc(C(F)(F)F)cc1Cl [Huang et al compound, 1-(2,6-dichloro-4-trifluoromethylphenyl)-3-cyano-4-trifluoromethylthio-5-(methoxyacetamido)pyrazole, reference compound]	–	–	–	–	–	< 50	no emesis (0/3)	< 50
CN(C(=O)C1CCCO1)c1c(SC(F)(F)F)c(C#N)nn1-c1c(Cl)cc(C(F)(F)F)cc1Cl [(S)1-7]	–	–	–	0	99	–	–	–
CCOCCC(=O)N(C)c1c(SC(F)(F)F)c(C#N)nn1-c1c(Cl)cc(C(F)(F)F)cc1Cl [Compound 38-1]	–	–	–	0	87	–	–	–
CCCOC(=O)N(CCC)c1c(SC(F)(F)F)c(C#N)nn1-c1c(Cl)cc(C(F)(F)F)cc1Cl [Compound 78-1]	96%	0	94%	–	–	–	–	–
COCCC(=O)N(C)c1c(SC(F)(F)F)c(C#N)nn1-c1c(Cl)cc(C(F)(F)F)cc1Cl [Compound 37-1]	–	–	–	0	76	–	–	–
N#Cc1nn(-c2c(Cl)cc(C(F)(F)F)cc2Cl)c(N=CNCC(F)(F)F)c1SC(F)(F)F [Compound 211-1]	99%	0	51%	–	–	–	–	–
CN(C(=O)C1CCCO1)c1c(SC(F)(F)F)c(C#N)nn1-c1c(Cl)cc(C(F)(F)F)cc1Cl [(R)1-7]	–	–	–	0	100	–	–	–
CN(C(=O)C1CC1)c1c(SC(F)(F)F)c(C#N)nn1-c1c(Cl)cc(C(F)(F)F)cc1Cl [Compound 117-1]	–	–	–	0	45	–	–	–
